In US20120122860A1, “SOLID FORMS OF SULFONAMIDES AND AMINO ACIDS” (Plexxikon, Inc., priority 2009, published 2012):

How the values were obtained:
B-Raf V600E = B-Raf V600E (Homo sapiens, UniProt P15056, V600E); assay: Kinase activity assay, B-Raf V600E; assay type: biochemical; conditions: read-out: activity toward kinase B-Raf V600E, IC50
Btk = Btk (Homo sapiens, UniProt Q06187); assay: Kinase activity assay, Btk
Fms = Fms (Homo sapiens, UniProt P07333); assay: Kinase activity assay, Fms
Kdr = Kdr (Homo sapiens, UniProt P35968); assay: Kinase activity assay, Kdr
Kit = Kit (Homo sapiens, UniProt P10721); assay: Kinase activity assay, Kit
Src = Src (Homo sapiens, UniProt P12931); assay: Kinase activity assay, Src
TEC = target: T1, TEC (Homo sapiens, UniProt P42680); assay: Kinase activity assay, TEC
T1 sequence (P42680 1-631): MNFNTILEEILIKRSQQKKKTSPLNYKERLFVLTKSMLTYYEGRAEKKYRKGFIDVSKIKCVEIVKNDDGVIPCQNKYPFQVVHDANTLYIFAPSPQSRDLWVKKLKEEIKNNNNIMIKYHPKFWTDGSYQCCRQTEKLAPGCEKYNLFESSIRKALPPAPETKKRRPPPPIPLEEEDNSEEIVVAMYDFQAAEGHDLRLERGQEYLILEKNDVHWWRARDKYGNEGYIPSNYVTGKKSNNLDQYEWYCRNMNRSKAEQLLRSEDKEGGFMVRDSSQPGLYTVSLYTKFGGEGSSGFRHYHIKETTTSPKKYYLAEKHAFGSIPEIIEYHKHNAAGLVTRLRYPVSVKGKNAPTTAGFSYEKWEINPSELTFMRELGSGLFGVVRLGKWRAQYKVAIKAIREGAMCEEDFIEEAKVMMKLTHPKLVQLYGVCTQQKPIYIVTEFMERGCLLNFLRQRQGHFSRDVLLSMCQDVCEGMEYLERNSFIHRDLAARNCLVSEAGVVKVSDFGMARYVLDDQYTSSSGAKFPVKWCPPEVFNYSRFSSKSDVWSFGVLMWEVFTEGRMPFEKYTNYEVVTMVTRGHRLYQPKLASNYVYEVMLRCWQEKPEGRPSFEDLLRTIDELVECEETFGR

C-Raf = C-Raf (Homo sapiens, UniProt P04049); assay: Kinase activity assay, C-Raf
MAP4K4 = MAP4K4 (Homo sapiens, UniProt O95819); assay: Kinase activity assay, MAP4K4
B-Raf = B-Raf (Homo sapiens, UniProt P15056); assay: Kinase activity assay, B-Raf; assay type: biochemical; conditions: read-out: activity toward kinase B-Raf, IC50
A-Raf = target: T2, A-Raf (Homo sapiens, UniProt P10398); assay: Kinase activity assay, A-Raf
T2 sequence (P10398 1-606): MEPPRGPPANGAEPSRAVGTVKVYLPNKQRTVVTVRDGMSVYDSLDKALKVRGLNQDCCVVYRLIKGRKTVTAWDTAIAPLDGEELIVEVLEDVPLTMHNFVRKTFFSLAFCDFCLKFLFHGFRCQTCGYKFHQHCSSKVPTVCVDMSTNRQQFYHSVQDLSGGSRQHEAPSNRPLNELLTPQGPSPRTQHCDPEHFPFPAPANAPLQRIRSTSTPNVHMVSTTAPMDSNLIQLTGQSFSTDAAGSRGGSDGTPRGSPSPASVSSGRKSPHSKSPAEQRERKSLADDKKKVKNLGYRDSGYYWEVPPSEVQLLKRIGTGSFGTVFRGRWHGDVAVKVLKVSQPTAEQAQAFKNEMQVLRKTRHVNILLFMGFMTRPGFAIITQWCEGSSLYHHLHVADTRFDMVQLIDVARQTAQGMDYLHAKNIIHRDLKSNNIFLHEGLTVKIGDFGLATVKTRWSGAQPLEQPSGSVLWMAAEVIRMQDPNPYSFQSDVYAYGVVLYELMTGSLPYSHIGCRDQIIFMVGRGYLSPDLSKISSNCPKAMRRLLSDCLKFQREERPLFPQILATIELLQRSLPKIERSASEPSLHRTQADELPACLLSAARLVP

PI3Kα = PI3Kα (Homo sapiens, UniProt P42336); assay: Kinase activity assay, PI3Kα

Sequence of MAP4K4 (O95819 whole entry): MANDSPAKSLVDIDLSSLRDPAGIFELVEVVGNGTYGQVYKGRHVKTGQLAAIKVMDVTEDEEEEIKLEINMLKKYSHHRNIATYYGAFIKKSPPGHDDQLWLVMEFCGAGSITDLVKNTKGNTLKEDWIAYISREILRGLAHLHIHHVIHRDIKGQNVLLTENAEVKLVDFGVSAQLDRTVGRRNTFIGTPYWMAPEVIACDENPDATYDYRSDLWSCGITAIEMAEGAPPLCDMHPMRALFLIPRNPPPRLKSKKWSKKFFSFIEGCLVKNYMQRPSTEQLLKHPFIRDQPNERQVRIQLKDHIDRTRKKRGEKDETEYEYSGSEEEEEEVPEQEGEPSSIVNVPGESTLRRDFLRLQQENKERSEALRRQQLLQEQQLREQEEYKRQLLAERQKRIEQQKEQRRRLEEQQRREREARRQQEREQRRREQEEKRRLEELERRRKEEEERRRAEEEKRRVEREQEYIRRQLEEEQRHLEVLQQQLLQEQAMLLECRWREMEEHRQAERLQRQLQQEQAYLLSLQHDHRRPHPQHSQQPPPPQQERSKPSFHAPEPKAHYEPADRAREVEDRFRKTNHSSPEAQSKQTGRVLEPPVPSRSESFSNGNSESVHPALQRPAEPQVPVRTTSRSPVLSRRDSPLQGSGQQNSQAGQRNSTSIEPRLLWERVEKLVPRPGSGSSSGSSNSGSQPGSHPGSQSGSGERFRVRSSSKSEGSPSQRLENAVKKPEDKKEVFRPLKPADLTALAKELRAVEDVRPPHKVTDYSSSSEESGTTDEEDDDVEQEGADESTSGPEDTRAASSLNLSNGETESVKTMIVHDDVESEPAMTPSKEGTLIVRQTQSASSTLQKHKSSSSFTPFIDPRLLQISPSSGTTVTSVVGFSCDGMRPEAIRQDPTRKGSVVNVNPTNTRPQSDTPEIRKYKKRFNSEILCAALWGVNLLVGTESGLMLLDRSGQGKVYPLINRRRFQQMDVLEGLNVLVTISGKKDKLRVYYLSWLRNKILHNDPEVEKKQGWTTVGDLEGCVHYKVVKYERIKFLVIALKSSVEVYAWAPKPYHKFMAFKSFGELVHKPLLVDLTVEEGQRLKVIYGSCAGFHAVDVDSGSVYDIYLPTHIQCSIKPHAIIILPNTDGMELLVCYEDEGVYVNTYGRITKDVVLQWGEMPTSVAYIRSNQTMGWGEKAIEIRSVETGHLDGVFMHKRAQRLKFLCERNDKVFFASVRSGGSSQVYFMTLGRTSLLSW
Sequence of C-Raf (P04049 whole entry): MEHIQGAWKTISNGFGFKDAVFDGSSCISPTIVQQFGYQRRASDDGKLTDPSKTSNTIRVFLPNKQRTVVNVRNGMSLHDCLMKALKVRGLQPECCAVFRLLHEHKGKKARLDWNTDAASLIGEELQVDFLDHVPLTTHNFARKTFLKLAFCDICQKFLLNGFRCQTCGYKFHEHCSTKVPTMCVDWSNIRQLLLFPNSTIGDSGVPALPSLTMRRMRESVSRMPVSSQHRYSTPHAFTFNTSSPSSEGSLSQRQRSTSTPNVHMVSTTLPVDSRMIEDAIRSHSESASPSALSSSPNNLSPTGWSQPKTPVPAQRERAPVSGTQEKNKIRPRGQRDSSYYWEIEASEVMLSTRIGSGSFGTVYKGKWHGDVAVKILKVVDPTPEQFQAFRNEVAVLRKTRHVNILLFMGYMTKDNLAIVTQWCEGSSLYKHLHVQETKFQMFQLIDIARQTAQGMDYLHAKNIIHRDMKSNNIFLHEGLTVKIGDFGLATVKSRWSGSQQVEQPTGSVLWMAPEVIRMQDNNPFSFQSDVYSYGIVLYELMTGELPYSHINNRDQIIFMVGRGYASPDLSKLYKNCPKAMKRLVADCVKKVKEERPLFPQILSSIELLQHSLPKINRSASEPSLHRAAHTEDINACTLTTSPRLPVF
Sequence of Btk (Q06187 whole entry): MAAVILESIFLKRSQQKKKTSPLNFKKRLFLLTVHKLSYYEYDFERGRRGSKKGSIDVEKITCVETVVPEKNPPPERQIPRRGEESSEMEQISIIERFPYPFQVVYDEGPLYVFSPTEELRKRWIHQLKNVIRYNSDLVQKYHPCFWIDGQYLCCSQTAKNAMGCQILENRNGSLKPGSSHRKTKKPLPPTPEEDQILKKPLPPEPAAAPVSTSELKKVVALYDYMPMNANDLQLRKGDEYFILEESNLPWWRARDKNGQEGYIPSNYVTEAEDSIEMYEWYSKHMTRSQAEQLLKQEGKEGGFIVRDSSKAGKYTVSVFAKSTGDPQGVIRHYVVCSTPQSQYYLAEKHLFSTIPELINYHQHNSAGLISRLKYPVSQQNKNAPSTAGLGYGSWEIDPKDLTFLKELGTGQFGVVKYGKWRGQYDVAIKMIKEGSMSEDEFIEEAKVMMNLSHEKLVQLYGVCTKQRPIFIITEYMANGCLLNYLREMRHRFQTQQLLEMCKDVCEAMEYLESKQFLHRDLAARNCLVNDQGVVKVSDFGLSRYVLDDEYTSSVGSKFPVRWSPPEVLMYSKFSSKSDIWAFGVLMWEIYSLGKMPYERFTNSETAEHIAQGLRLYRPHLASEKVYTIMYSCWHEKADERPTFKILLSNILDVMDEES
Sequence of B-Raf V600E (P15056 whole entry V600E): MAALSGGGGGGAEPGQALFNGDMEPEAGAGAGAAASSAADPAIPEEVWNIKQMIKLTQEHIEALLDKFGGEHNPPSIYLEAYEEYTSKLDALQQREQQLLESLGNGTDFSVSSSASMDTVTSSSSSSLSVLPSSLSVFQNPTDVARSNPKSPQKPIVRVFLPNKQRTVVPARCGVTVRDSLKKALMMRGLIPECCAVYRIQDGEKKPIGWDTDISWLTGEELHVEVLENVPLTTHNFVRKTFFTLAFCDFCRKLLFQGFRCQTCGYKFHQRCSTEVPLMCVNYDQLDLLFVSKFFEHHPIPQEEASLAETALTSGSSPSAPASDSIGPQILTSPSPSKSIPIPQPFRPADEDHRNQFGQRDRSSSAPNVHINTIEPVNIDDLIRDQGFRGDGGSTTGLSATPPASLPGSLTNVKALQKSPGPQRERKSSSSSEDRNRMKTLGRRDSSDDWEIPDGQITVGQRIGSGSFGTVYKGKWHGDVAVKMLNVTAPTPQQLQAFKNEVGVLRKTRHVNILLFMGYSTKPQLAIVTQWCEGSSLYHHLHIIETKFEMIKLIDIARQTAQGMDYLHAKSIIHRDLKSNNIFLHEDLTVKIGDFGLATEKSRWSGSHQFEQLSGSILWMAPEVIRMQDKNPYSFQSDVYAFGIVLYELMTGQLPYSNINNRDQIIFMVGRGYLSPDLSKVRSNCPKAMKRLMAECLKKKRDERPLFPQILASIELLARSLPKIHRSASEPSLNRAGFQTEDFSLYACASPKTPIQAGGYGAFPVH
Sequence of Src (P12931 whole entry): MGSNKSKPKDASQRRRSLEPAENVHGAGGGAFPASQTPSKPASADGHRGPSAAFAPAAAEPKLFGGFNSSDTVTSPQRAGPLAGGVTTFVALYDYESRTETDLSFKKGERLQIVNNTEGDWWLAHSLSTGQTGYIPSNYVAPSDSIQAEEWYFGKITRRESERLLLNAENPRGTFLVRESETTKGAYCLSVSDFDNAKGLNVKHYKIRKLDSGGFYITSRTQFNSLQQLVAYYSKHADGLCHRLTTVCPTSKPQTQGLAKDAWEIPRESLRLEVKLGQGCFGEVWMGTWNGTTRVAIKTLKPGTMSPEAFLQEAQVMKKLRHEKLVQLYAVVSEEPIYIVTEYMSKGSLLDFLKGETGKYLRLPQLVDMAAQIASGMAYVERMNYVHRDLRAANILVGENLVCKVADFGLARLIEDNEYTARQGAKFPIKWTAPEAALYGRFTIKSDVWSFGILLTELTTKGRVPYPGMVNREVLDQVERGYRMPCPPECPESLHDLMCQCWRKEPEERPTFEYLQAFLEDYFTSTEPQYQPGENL
Sequence of B-Raf (P15056 whole entry): as the sequence (P15056 whole entry V600E) above, with E600V counted along it
Sequence of Fms (P07333 20-972): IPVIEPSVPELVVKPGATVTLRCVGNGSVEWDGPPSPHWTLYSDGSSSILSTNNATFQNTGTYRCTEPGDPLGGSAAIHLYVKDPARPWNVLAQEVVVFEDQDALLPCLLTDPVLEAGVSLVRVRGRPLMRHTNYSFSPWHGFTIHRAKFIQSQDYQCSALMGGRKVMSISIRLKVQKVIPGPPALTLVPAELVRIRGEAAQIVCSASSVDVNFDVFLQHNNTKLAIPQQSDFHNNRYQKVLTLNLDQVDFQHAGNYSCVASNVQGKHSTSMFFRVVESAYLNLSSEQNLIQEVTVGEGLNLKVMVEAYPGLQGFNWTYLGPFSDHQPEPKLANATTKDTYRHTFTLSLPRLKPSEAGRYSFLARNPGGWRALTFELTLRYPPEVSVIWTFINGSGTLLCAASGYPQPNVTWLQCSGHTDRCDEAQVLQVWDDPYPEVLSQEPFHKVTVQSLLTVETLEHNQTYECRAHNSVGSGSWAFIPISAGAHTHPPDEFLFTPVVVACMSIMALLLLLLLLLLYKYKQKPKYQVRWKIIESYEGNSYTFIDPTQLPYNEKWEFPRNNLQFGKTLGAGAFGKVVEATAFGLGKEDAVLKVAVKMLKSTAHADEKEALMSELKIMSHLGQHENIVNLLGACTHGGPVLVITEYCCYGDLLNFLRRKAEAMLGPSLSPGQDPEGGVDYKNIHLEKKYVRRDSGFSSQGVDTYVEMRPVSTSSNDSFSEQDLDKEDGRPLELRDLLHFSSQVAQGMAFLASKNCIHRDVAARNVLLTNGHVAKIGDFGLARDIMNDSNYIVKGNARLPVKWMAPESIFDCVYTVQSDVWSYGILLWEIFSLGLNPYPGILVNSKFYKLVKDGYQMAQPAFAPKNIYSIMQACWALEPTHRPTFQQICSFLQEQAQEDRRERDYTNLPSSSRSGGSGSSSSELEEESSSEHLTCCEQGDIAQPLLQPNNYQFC

SMILES | IC50 (B-Raf V600E) [µM] | IC50 (Btk) [µM] | IC50 (Fms) [µM] | IC50 (Kdr) [µM] | IC50 (Kit) [µM] | IC50 (Src) [µM] | IC50 (TEC) [µM] | IC50 (C-Raf) [µM] | IC50 (MAP4K4) [µM] | IC50 (B-Raf) [µM] | IC50 (A-Raf) [µM] | IC50 (PI3Kα) [µM]
CS(=O)(=O)Nc1cccc(-c2cnc3[nH]cc(C(=O)c4cc(NS(=O)(=O)C5CCCCC5)ccc4F)c3c2)c1 [P-2446, Cyclohexanesulfonic acid {4-fluoro-3-[5-(3-methanesulfonylamino-phenyl)-1H-pyrrolo[2,3-b]pyridine-3-carbonyl]-phenyl}-amide] | ≤ 10 | ≤ 10 | ≤ 10 | ≤ 10 | ≤ 10 | ≤ 10 | ≤ 10 | ≤ 10 | ≤ 10 |  |  | 
CS(=O)(=O)Nc1cccc(-c2cnc3[nH]cc(C(=O)c4cc(NS(=O)(=O)C5CCCC5)ccc4F)c3c2)c1 [P-2447, Cyclopentanesulfonic acid {4-fluoro-3-[5-(3-methanesulfonylamino-phenyl)-1H-pyrrolo[2,3-b]pyridine-3-carbonyl]-phenyl}-amide] | ≤ 10 | ≤ 10 | ≤ 10 | ≤ 10 | ≤ 10 | ≤ 10 | ≤ 10 | ≤ 10 | ≤ 10 | ≤ 10 |  | 
N#Cc1ccnc2[nH]cc(C(=O)c3c(F)ccc(NS(=O)(=O)N4CCCC4)c3F)c12 [P-2394, Pyrrolidine-1-sulfonic acid [3-(4-cyano-1H-pyrrolo[2,3-b]pyridine-3-carbonyl)-2,4-difluoro-phenyl]-amide] | ≤ 10 | ≤ 10 |  | ≤ 10 |  | ≤ 10 | ≤ 10 | ≤ 10 |  | ≤ 10 | ≤ 10 | 
Cc1cnc2[nH]cc(C(=O)c3c(F)ccc(NS(=O)(=O)N4CCCC4)c3F)c2c1 [P-2379, Pyrrolidine-1-sulfonic acid [2,4-difluoro-3-(5-methyl-1H-pyrrolo[2,3-b]pyridine-3-carbonyl)-phenyl]-amide] | ≤ 10 | ≤ 10 |  | ≤ 10 | ≤ 10 | ≤ 10 | ≤ 10 | ≤ 10 |  | ≤ 10 | ≤ 10 | 
COc1ccnc2[nH]cc(C(=O)c3c(F)ccc(NS(=O)(=O)c4cc(F)ccc4F)c3F)c12 [P-2022, N-[2,4-Difluoro-3-(4-methoxy-1H-pyrrolo[2,3-b]pyridine-3-carbonyl)-phenyl]-2,5-difluoro-benzenesulfonamide] | ≤ 10 | ≤ 10 | ≤ 10 | ≤ 10 | ≤ 10 | ≤ 10 | ≤ 10 | ≤ 10 | ≤ 10 | ≤ 10 | ≤ 10 | 
COc1ncc(-c2cnc3[nH]cc(C(=O)c4c(F)ccc(NS(=O)(=O)c5ccc(F)cc5)c4F)c3c2)cn1 [P-2040, N-{2,4-Difluoro-3-[5-(2-methoxy-pyrimidin-5-yl)-1H-pyrrolo[2,3-b]pyridine-3-carbonyl]-phenyl}-4-fluoro-benzenesulfonamide] | ≤ 10 |  |  |  |  | ≤ 10 | ≤ 10 | ≤ 10 |  | ≤ 10 |  | ≤ 10
CN(C)S(=O)(=O)Nc1ccc(F)c(C(=O)c2c[nH]c3nccc(Cl)c23)c1F [P-2383, N,N-dimethylamino-sulfonic acid [3-(4-chloro-1H-pyrrolo[2,3-b]pyridine-3-carbonyl)-2,4-difluoro-phenyl]-amide] | ≤ 10 | ≤ 10 | ≤ 10 | ≤ 10 | ≤ 10 | ≤ 10 | ≤ 10 | ≤ 10 | ≤ 10 | ≤ 10 |  | 
CCCS(=O)(=O)Nc1ccc(F)c(C(=O)c2c[nH]c3ncc(-c4ccc(O)nc4)cc23)c1F [P-2234, Propane-1-sulfonic acid {2,4-difluoro-3-[5-(6-hydroxy-pyridin-3-yl)-1H-pyrrolo[2,3-b]pyridine-3-carbonyl]-phenyl}-amide] | ≤ 10 |  | ≤ 10 | ≤ 10 | ≤ 10 | ≤ 10 |  | ≤ 10 | ≤ 10 | ≤ 10 | ≤ 10 | ≤ 10
C#Cc1cnc2[nH]cc(C(=O)c3c(F)ccc(NS(=O)(=O)CCC)c3F)c2c1 [P-2260, Propane-1-sulfonic acid [3-(5-ethynyl-1H-pyrrolo[2,3-b]pyridine-3-carbonyl)-2,4-difluoro-phenyl]-amide] | ≤ 10 | ≤ 10 | ≤ 10 | ≤ 10 | ≤ 10 | ≤ 10 | ≤ 10 | ≤ 10 |  | ≤ 10 | ≤ 10 | 

Results, then the compound that gave them:

IC50 (B-Raf V600E) [µM] | IC50 (Btk) [µM] | IC50 (Fms) [µM] | IC50 (Kdr) [µM] | IC50 (Kit) [µM] | IC50 (Src) [µM] | IC50 (TEC) [µM] | IC50 (C-Raf) [µM] | IC50 (MAP4K4) [µM] | IC50 (B-Raf) [µM] | IC50 (A-Raf) [µM] | IC50 (PI3Kα) [µM] | SMILES
 | ≤ 10 | ≤ 10 | ≤ 10 | ≤ 10 | ≤ 10 | ≤ 10 |  | ≤ 10 | ≤ 10 |  |  | Cn1cc(-c2cnc3[nH]cc(C(=O)c4cccc(NS(=O)(=O)c5cccnc5)c4)c3c2)cn1 [P-2144, Pyridine-3-sulfonic acid {3-[5-(1-methyl-1H-pyrazol-4-yl)-1H-pyrrolo[2,3-b]pyridine-3-carbonyl]-phenyl}-amide]
 | ≤ 10 | ≤ 10 | ≤ 10 | ≤ 10 | ≤ 10 | ≤ 10 |  | ≤ 10 | ≤ 10 |  |  | COc1cnc2[nH]cc(C(=O)c3cccc(NS(=O)(=O)c4cccnc4)c3)c2c1 [P-2142, Pyridine-3-sulfonic acid [3-(5-methoxy-1H-pyrrolo[2,3-b]pyridine-3-carbonyl)-phenyl]-amide]
≤ 10 | ≤ 10 | ≤ 10 | ≤ 10 | ≤ 10 | ≤ 10 | ≤ 10 | ≤ 10 | ≤ 10 | ≤ 10 |  |  | Cn1cc(-c2cnc3[nH]cc(C(=O)c4cc(NS(=O)(=O)c5cccnc5)ccc4F)c3c2)cn1 [P-2140, Pyridine-3-sulfonic acid{4-fluoro-3-[5-(1-methyl-1H-pyrazol-4-yl)-1H-pyrrolo[2,3-b]pyridine-3-carbonyl]-phenyl}-amide]
 |  | ≤ 10 | ≤ 10 | ≤ 10 | ≤ 10 |  |  | ≤ 10 | ≤ 10 |  | ≤ 10 | CS(=O)(=O)c1cccc(-c2cnc3[nH]cc(C(=O)c4cccc(NS(=O)(=O)c5cccnc5)c4)c3c2)c1 [P-2149, Pyridine-3-sulfonic acid {3-[5-(3-methanesulfonyl-phenyl)-1H-pyrrolo[2,3-b]pyridine-3-carbonyl]-phenyl}-amide]
≤ 10 | ≤ 10 | ≤ 10 | ≤ 10 | ≤ 10 | ≤ 10 | ≤ 10 | ≤ 10 | ≤ 10 | ≤ 10 |  |  | CS(=O)(=O)c1cccc(-c2cnc3[nH]cc(C(=O)c4cc(NS(=O)(=O)C5CCCCC5)ccc4F)c3c2)c1 [P-2444, Cyclohexanesulfonic acid {4-fluoro-3-[5-(3-methanesulfonyl-phenyl)-1H-pyrrolo[2,3-b]pyridine-3-carbonyl]-phenyl}-amide]
